Common to all, as to format: functional, cell-based
The subject of one assay is HT-29. Put plainly: Cytotoxicity was evaluated against HT-29 colon carcinoma human cancer cell line.
The next assay concerns A549. Put plainly: Cytotoxicity was evaluated against A549 non-small cell lung carcinoma human cancer cell line.
The test system of a further assay is MCF7. Put plainly: Cytotoxicity was evaluated against MCF-7 mammary carcinoma human breast cancer cell line.
The next assay concerns MCF7R. Put plainly: Cytotoxicity was evaluated against MCF7-R (mammary carcinoma 180-fold resistant to doxorubicin, expressing MDR phenotype) human breast cancer cell line.
The subject of a further assay is A121. Put plainly: Cytotoxicity was evaluated against A121 ovarian carcinoma human cancer cell line.

Here are results for nine molecules from ChEMBL document CHEMBL1130555, “Synthesis and biological activity of novel 3-trifluoromethyl taxoids” (Bioorg Med Chem Lett, 1997).

The term IC50 denotes the concentration needed to halve the response being measured. As for `CCC(=O)O[C@H]1C(=O)[C@@]2(C)[C@H]([C@H](OC(=O)c3ccccc3)[C@]3(O)C[C@H](OC(=O)[C@H](O)[C@@H](NC(=O)OC(C)(C)C)C(F)(F)F)C(C)=C1C3(C)C)[C@]1(OC(C)=O)CO[C@@H]1C[C@@H]2O`, the IC50 in the assay on HT-29 was found to be 0.4 nM; in the assay on A549, 0.3 nM; in the assay on MCF7, 0.3 nM; in the assay on MCF7R, 14 nM; in the assay with A121, 0.3 nM.

Regarding `CC(=O)O[C@H]1C(=O)[C@@]2(C)[C@H]([C@H](OC(=O)c3ccccc3)[C@]3(O)C[C@H](OC(=O)[C@H](O)[C@@H](NC(=O)OC(C)(C)C)C(F)(F)F)C(C)=C1C3(C)C)[C@]1(OC(C)=O)CO[C@@H]1C[C@@H]2O`, the IC50 with HT-29 amounted to 0.4 nM; with A549 it was 0.2 nM; in the assay with MCF7, 0.6 nM; with MCF7R it was 156 nM; in the assay with A121, 0.3 nM.

As for `CC(=O)O[C@@]12CO[C@@H]1C[C@H](O)[C@@]1(C)C(=O)[C@H](OC(=O)C3CC3)C3=C(C)[C@@H](OC(=O)[C@H](O)[C@@H](NC(=O)OC(C)(C)C)C(F)(F)F)C[C@@](O)([C@@H](OC(=O)c4ccccc4)[C@H]21)C3(C)C`, the half-maximal inhibitory concentration (IC50) in the assay with HT-29 was found to be 0.5 nM; with A549, 0.4 nM; with MCF7 it was 0.5 nM; in the assay with MCF7R it was 16 nM; in the assay on A121 it was 0.4 nM.

With `CC(=O)O[C@@]12CO[C@@H]1C[C@H](O)[C@@]1(C)C(=O)[C@H](O)C3=C(C)[C@@H](OC(=O)[C@H](O)[C@@H](NC(=O)OC(C)(C)C)C(F)(F)F)C[C@@](O)([C@@H](OC(=O)c4ccccc4)[C@H]21)C3(C)C`, the IC50 stood at 0.65 nM in the assay with HT-29; 0.44 nM in the assay with A549; 0.44 nM with MCF7; 156 nM in the assay with MCF7R; 1.15 nM with A121.

Consider `COC(=O)O[C@H]1C(=O)[C@@]2(C)[C@H]([C@H](OC(=O)c3ccccc3)[C@]3(O)C[C@H](OC(=O)[C@H](O)[C@@H](NC(=O)OC(C)(C)C)C(F)(F)F)C(C)=C1C3(C)C)[C@]1(OC(C)=O)CO[C@@H]1C[C@@H]2O`, for which the IC50 with HT-29 turned out to be 0.4 nM; in the assay with A549, 0.2 nM; with MCF7 it was 0.4 nM; in the assay on MCF7R it was 21 nM; in the assay on A121 it was 0.3 nM.

On to `CC(=O)O[C@@]12CO[C@@H]1C[C@H](O)[C@@]1(C)C(=O)[C@H](OC(=O)N3CCOCC3)C3=C(C)[C@@H](OC(=O)[C@H](O)[C@@H](NC(=O)OC(C)(C)C)C(F)(F)F)C[C@@](O)([C@@H](OC(=O)c4ccccc4)[C@H]21)C3(C)C`, for which the IC50 with HT-29 was determined as 0.4 nM; in the assay with A549 it was 0.4 nM; in the assay on MCF7, 0.4 nM; in the assay on MCF7R it was 48 nM; in the assay with A121, 0.5 nM.

Take `CC(=O)O[C@@]12CO[C@@H]1C[C@H](O)[C@@]1(C)C(=O)[C@H](OC(=O)N(C)C)C3=C(C)[C@@H](OC(=O)[C@H](O)[C@@H](NC(=O)OC(C)(C)C)C(F)(F)F)C[C@@](O)([C@@H](OC(=O)c4ccccc4)[C@H]21)C3(C)C`: the half-maximal inhibitory concentration (IC50) in the assay with HT-29 was determined as 0.4 nM; with A549, 0.2 nM; with MCF7, 0.6 nM; in the assay on MCF7R, 17 nM; in the assay with A121, 0.3 nM.

For the molecule `CCCCC(=O)O[C@H]1C(=O)[C@@]2(C)[C@H]([C@H](OC(=O)c3ccccc3)[C@]3(O)C[C@H](OC(=O)[C@H](O)[C@@H](NC(=O)OC(C)(C)C)C(F)(F)F)C(C)=C1C3(C)C)[C@]1(OC(C)=O)CO[C@@H]1C[C@@H]2O`, the IC50 in the assay with HT-29 worked out at 1.4 nM; in the assay on A549 it was 0.8 nM; in the assay on MCF7, 0.7 nM; with MCF7R it was 26 nM; with A121, 0.7 nM.

Turning to `CC(=O)O[C@@]12CO[C@@H]1C[C@H](O)[C@@]1(C)C(=O)[C@H](OC(=O)CC(C)(C)C)C3=C(C)[C@@H](OC(=O)[C@H](O)[C@@H](NC(=O)OC(C)(C)C)C(F)(F)F)C[C@@](O)([C@@H](OC(=O)c4ccccc4)[C@H]21)C3(C)C`, the half-inhibitory concentration (IC50) was 0.6 nM with HT-29; 0.5 nM in the assay with A549; 0.5 nM in the assay on MCF7; 12 nM in the assay with MCF7R; 0.5 nM in the assay with A121.
